Laboratory results reported in ChEMBL document CHEMBL5143545, “Indolylarylsulfones bearing phenylboronic acid and phenylboronate ester functionalities as potent HIV‑1 non-nucleoside reverse transcriptase inhibitors” (Bioorg Med Chem, 2022).
≈ marks a conversion by molar mass, not a printed value.

What was measured:
[1] = system: Human immunodeficiency virus 1; assay: microbe, parasite or virus in culture; conditions: Human immunodeficiency virus 1, 3B, MT4
Description: Antiviral activity against HIV1 3B infected in human MT4 cells assessed as protection against viral-induced cytopathogenecity by MTT assay

[2] = system: Human immunodeficiency virus 1; assay: Antiviral activity against HIV1 with RT RES056 mutant infected in human MT4 cells assessed as protection against viral-induced cytopathogenecity by MTT assay; type: functional, organism-based; conditions: Human immunodeficiency virus 1, MT4
[3] = system: Human immunodeficiency virus 1; type: functional, organism-based; conditions: Human immunodeficiency virus 1, MT4
[4] = system: Human immunodeficiency virus 1; type: functional, organism-based; conditions: Human immunodeficiency virus 1, MT4; remark: listed apart in the source
[5] = system: Human immunodeficiency virus 1; assay: Antiviral activity against HIV1 with RT E138K mutant infected in human MT4 cells assessed as protection against viral-induced cytopathogenecity by MTT assay; type: functional, organism-based; conditions: Human immunodeficiency virus 1, MT4
[6] = system: Human immunodeficiency virus 1; type: functional, organism-based; conditions: Human immunodeficiency virus 1, MT4; remark: listed apart in the source
[7] = Toxicity in mock-infected human MT4 cells assessed as reduction in cell viability by MTT assay; type: cell-based
[8] = system: Human immunodeficiency virus 1; assay: Antiviral activity against HIV1 with RT K103N mutant infected in human MT4 cells assessed as protection against viral-induced cytopathogenecity by MTT assay; type: functional, organism-based; conditions: Human immunodeficiency virus 1, MT4
[9] = in vitro; conditions: human, MT4 cells, mock-infected (CC50) and HIV1 3B infected (EC50)
Description: Selectivity index, ratio of CC50 for toxicity in mock-infected human MT4 cells assessed as reduction in cell viability by MTT assay to EC50 for antiviral activity against HIV1 3B infected in human MT4 cells assessed as protection against viral-induced cytopathogenecity by MTT assay

[10] = system: Human immunodeficiency virus 1; assay: Antiviral activity against HIV1 with RT L100I mutant infected in human MT4 cells assessed as protection against viral-induced cytopathogenecity by MTT assay; type: functional, organism-based; conditions: Human immunodeficiency virus 1, MT4
[11] = Solubility in water at pH 7; type: physicochemical
[12] = target: Human immunodeficiency virus type 1 reverse transcriptase (Human immunodeficiency virus 1, UniProt Q72547); assay: Inhibition of HIV1 reverse transcriptase assessed as inhibition of biotin-dUTP incorporation
[13] = Solubility in water at pH 7.4; type: physicochemical
[14] = Solubility in water at pH 2; type: physicochemical

Cc1cc(C)cc(S(=O)(=O)c2c(C(=O)NCCCNC(=O)c3ccc(B(O)O)cc3)[nH]c3ccc(Cl)cc23)c1
EC50 [1]: 0.0111 µM
EC50 [2]: 4.91 µM
EC50 [3]: 0.19 µM
EC50 [4]: 0.118 µM
EC50 [5]: 0.0342 µM
EC50 [6]: 2.23 µM
CC50 [7]: 24.7 µM
EC50 [8]: 0.033 µM
selectivity ratio [9]: 2240
EC50 [10]: 0.021 µM

Cc1cc(C)cc(S(=O)(=O)c2c(C(=O)Nc3ccc(B(O)O)cc3)[nH]c3ccc(Cl)cc23)c1
EC50 [1]: 0.012 µM
EC50 [2]: > 856 µM
EC50 [3]: 0.215 µM
EC50 [4]: 0.0795 µM
EC50 [5]: 0.0398 µM
EC50 [6]: > 1.62 µM
CC50 [7]: 8.55 µM
EC50 [8]: 0.041 µM
selectivity ratio [9]: 712
EC50 [10]: 0.037 µM

Cc1cc(C)cc(S(=O)(=O)c2c(C(=O)NCCCNC(=O)c3cccc(B(O)O)c3)[nH]c3ccc(Cl)cc23)c1
EC50 [1]: 0.0354 µM
EC50 [2]: 5.4 µM
EC50 [3]: 0.27 µM
EC50 [4]: 0.22 µM
EC50 [5]: 0.0844 µM
EC50 [6]: 1.82 µM
CC50 [7]: 24.2 µM
EC50 [8]: 0.13 µM
selectivity ratio [9]: 684
EC50 [10]: 0.11 µM

Cc1cc(C)cc(S(=O)(=O)c2c(C(=O)NC3CCN(Cc4ccc(B(O)O)cc4)CC3)[nH]c3ccc(Cl)cc23)c1
EC50 [1]: 0.0314 µM
EC50 [2]: > 19.3 µM
EC50 [3]: 1.07 µM
EC50 [4]: 1.31 µM
EC50 [5]: 0.646 µM
EC50 [6]: > 19.3 µM
CC50 [7]: 19.3 µM
EC50 [8]: 0.31 µM
selectivity ratio [9]: 615
EC50 [10]: 0.11 µM

Cc1cc(C)cc(S(=O)(=O)c2c(C(=O)NCc3ccc(B4OC(C)(C)C(C)(C)O4)cc3)[nH]c3ccc(Cl)cc23)c1
EC50 [1]: 0.0067 µM
EC50 [2]: 4.04 µM
EC50 [3]: 0.0699 µM
solubility [11]: 35.8 µg/mL (≈ 61.8 µM)
IC50 [12]: 0.119 µM
EC50 [4]: 0.091 µM
EC50 [5]: 0.045 µM
EC50 [6]: 2.59 µM
CC50 [7]: 23.9 µM
solubility [13]: 37.7 µg/mL (≈ 65.1 µM)
solubility [14]: 73 µg/mL (≈ 126 µM)
EC50 [8]: 0.035 µM
selectivity ratio [9]: 3550
EC50 [10]: 0.014 µM

Cc1cc(C)cc(S(=O)(=O)c2c(C(=O)NCc3cccc(B(O)O)c3)[nH]c3ccc(Cl)cc23)c1
EC50 [1]: 0.0085 µM
EC50 [2]: 1.51 µM
EC50 [3]: 0.06 µM
solubility [11]: 70 µg/mL (≈ 141 µM)
IC50 [12]: 0.123 µM
EC50 [4]: 0.021 µM
EC50 [5]: 0.0503 µM
EC50 [6]: 0.89 µM
CC50 [7]: 28 µM
solubility [13]: 94.5 µg/mL (≈ 190 µM)
solubility [14]: 64 µg/mL (≈ 129 µM)
EC50 [8]: 0.0092 µM
selectivity ratio [9]: 3310
EC50 [10]: 0.0073 µM

Cc1cc(C)cc(S(=O)(=O)c2c(C(=O)NCCNC(=O)c3cccc(B(O)O)c3)[nH]c3ccc(Cl)cc23)c1
EC50 [1]: 0.0408 µM
EC50 [2]: > 21.1 µM
EC50 [3]: 1.34 µM
EC50 [4]: 0.98 µM
EC50 [5]: 0.243 µM
EC50 [6]: 8.1 µM
CC50 [7]: 21.1 µM
EC50 [8]: 0.57 µM
selectivity ratio [9]: 517
EC50 [10]: 0.26 µM

Cc1cc(C)cc(S(=O)(=O)c2c(C(=O)Nc3ccc4c(c3)B(O)OC4)[nH]c3ccc(Cl)cc23)c1
EC50 [1]: 0.0184 µM
EC50 [2]: > 8.41 µM
EC50 [3]: 0.47 µM
EC50 [4]: 0.19 µM
EC50 [5]: 0.0649 µM
EC50 [6]: > 1.96 µM
CC50 [7]: 8.42 µM
EC50 [8]: 0.11 µM
selectivity ratio [9]: 457
EC50 [10]: 0.096 µM

Cc1cc(C)cc(S(=O)(=O)c2c(C(=O)NCCNC(=O)c3ccc(B(O)O)cc3)[nH]c3ccc(Cl)cc23)c1
EC50 [1]: 0.0198 µM
EC50 [2]: > 24.3 µM
EC50 [3]: 0.91 µM
EC50 [4]: 0.7 µM
EC50 [5]: 0.162 µM
EC50 [6]: 6.76 µM
CC50 [7]: 24.4 µM
EC50 [8]: 0.26 µM
selectivity ratio [9]: 1230
EC50 [10]: 0.23 µM

Cc1cc(C)cc(S(=O)(=O)c2c(C(=O)Nc3cccc(B(O)O)c3)[nH]c3ccc(Cl)cc23)c1
EC50 [1]: 0.0189 µM
EC50 [2]: > 5.3 µM
EC50 [3]: 0.85 µM
EC50 [4]: 0.2 µM
EC50 [5]: 0.0676 µM
EC50 [6]: > 5.3 µM
CC50 [7]: 5.31 µM
EC50 [8]: 0.1 µM
selectivity ratio [9]: 282
EC50 [10]: 0.0875 µM

Cc1cc(C)cc(S(=O)(=O)c2c(C(=O)NC3CCN(Cc4cccc(B(O)O)c4)CC3)[nH]c3ccc(Cl)cc23)c1
EC50 [1]: 0.0426 µM
EC50 [2]: > 6.43 µM
EC50 [3]: 1.19 µM
EC50 [4]: > 1.19 µM
EC50 [5]: 0.717 µM
EC50 [6]: > 6.43 µM
CC50 [7]: 6.43 µM
EC50 [8]: 0.51 µM
selectivity ratio [9]: 151
EC50 [10]: 0.28 µM

Cc1cc(C)cc(S(=O)(=O)c2c(C(=O)NCc3ccc(B(O)O)cc3)[nH]c3ccc(Cl)cc23)c1
EC50 [1]: 0.0088 µM
EC50 [2]: 4.64 µM
EC50 [3]: 0.12 µM
EC50 [4]: 0.115 µM
EC50 [5]: 0.0537 µM
EC50 [6]: 3.86 µM
CC50 [7]: 27.7 µM
EC50 [8]: 0.032 µM
selectivity ratio [9]: 3140
EC50 [10]: 0.0094 µM

Cc1cc(C)cc(S(=O)(=O)c2c(C(N)=O)[nH]c3ccc(Cl)cc23)c1
EC50 [1]: 0.0028 µM
EC50 [2]: > 7.08 µM
EC50 [3]: 0.03 µM
solubility [11]: 58.3 µg/mL (≈ 161 µM)
IC50 [12]: 0.0048 µM
EC50 [4]: 0.08 µM
EC50 [5]: 0.01 µM
EC50 [6]: 1.17 µM
CC50 [7]: 7.08 µM
solubility [13]: 29 µg/mL (≈ 79.9 µM)
solubility [14]: 71.2 µg/mL (≈ 196 µM)
EC50 [8]: 0.02 µM
selectivity ratio [9]: 2570
EC50 [10]: 0.01 µM

O=C1Nc2ccc(Cl)cc2[C@@](C#CC2CC2)(C(F)(F)F)O1 [EFAVIRENZ]
EC50 [2]: 0.33 µM
EC50 [3]: 0.0063 µM
EC50 [5]: 0.0066 µM
EC50 [6]: 0.21 µM
CC50 [7]: > 6.34 µM

Cc1cc(C#N)cc(C)c1Oc1nc(Nc2ccc(C#N)cc2)nc(N)c1Br [ETRAVIRINE]
EC50 [1]: 0.0029 µM
EC50 [2]: 0.066 µM
solubility [11]: < 2 µg/mL
EC50 [4]: 0.02 µM
EC50 [5]: 0.019 µM
CC50 [7]: > 4.59 µM
solubility [13]: < 1 µg/mL
solubility [14]: < 3 µg/mL
EC50 [10]: 0.0076 µM

Nc1ccn([C@@H]2CS[C@H](CO)O2)c(=O)n1 [LAMIVUDINE]
EC50 [1]: 5.23 µM
EC50 [2]: 5.06 µM
EC50 [3]: 3.4 µM
EC50 [4]: 2.17 µM
EC50 [5]: 8.27 µM
EC50 [6]: 4.56 µM
CC50 [7]: > 87.2 µM
EC50 [8]: 2.79 µM
selectivity ratio [9]: > 309
EC50 [10]: 1.15 µM

Cc1ccnc2c1NC(=O)c1cccnc1N2C1CC1 [NEVIRAPINE]
EC50 [1]: 0.16 µM
EC50 [2]: > 1500 µM
EC50 [3]: 11 µM
EC50 [4]: > 1500 µM
EC50 [6]: > 1500 µM
CC50 [7]: > 15 µM

Cc1cn([C@H]2C[C@H](N=[N+]=[N-])[C@@H](CO)O2)c(=O)[nH]c1=O [ZIDOVUDINE]
EC50 [1]: 0.0212 µM
EC50 [3]: 0.015 µM
EC50 [4]: 0.0097 µM
EC50 [5]: 0.0347 µM
EC50 [6]: 0.012 µM
CC50 [7]: > 7.48 µM
EC50 [8]: 0.022 µM
selectivity ratio [9]: > 352
EC50 [10]: 0.0093 µM
